Where a name gives a salt, the structure may show the parent alone.
Biological target: T1, human recombinant ENPP1 (Homo sapiens, UniProt P22413)
T1 construct: purchased R & D systems
T1 sequence (P22413 1-925): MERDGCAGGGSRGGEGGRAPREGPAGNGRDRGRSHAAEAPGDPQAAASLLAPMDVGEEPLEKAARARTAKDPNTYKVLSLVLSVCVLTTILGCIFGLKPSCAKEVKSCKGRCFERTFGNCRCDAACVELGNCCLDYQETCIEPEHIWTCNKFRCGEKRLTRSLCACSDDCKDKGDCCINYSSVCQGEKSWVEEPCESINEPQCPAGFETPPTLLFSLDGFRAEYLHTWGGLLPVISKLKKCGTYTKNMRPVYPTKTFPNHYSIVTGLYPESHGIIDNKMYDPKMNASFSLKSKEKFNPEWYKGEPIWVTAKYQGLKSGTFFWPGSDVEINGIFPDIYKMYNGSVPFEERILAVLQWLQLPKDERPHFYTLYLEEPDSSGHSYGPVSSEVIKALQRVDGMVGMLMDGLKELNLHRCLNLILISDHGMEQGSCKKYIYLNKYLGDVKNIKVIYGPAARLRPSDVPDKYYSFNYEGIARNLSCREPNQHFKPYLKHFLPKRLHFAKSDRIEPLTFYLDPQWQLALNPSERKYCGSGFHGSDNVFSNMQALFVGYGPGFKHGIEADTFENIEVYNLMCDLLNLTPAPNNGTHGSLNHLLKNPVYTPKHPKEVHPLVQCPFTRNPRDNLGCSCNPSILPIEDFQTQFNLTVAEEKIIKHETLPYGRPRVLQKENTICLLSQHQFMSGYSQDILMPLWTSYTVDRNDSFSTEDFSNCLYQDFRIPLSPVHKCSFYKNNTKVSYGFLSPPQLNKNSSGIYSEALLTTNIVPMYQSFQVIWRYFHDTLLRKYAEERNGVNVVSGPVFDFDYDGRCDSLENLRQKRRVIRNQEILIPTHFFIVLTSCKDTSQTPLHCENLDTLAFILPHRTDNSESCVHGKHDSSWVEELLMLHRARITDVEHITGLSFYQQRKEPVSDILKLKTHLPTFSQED
Experiment: ENPP1 enzyme assay with cGAMP substrate (AMP-Glo luminescence)
Assay type: biochemical
Conditions: human recombinant ENPP1 3 ng/reaction, cGAMP 5 μM, 37° C. 90 minutes, read-out: Enzymatic activity (ENPP1 IC50)
Outline: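 Human ENPP1 hydrolysis of 5 μM cGAMP was run for 90 min at 37° C in 50 mM Tris pH 8.5, 250 mM NaCl, 0.5 mM CaCl2, 1 μM ZnCl2, 5% glycerol, 1% DMSO. AMP product was quantified by AMP-Glo luminescence; IC50 came from 3-parameter fits of % residual activity, averaged over at least two runs.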

Compound	IC50
COc1cc2c(Cc3ccc4c(c3)CCN4S(N)(=O)=O)nn(C)c(=O)c2cc1OC [Example 188, 5-((6,7-dimethoxy-3-methyl-4-oxo-3,4-dihydrophthalazin-1-yl)methyl)indoline-1-sulfonamide hydrochloride]	< 1 µM
NS(=O)(=O)Nc1ccc(Cc2n[nH]c(=O)c3ccccc23)c(F)c1 [Example 189, N-(3-fluoro-4-((4-oxo-3,4-dihydrophthalazin-1-yl)methyl)phenyl)sulfamide hydrochloride]	< 1 µM
NS(=O)(=O)Nc1ccc(Cc2n[nH]c(=O)c3ccccc23)cc1F [Example 190, N-(2-fluoro-4-((4-oxo-3,4-dihydrophthalazin-1-yl)methyl)phenyl)sulfamide hydrochloride]	< 1 µM
NS(=O)(=O)Nc1ccc(Cc2n[nH]c(=O)c3ccccc23)c(C(F)(F)F)c1 [Example 191, N-(3-(trifluorobenzylmethyl)-4-((4-oxo-3,4-dihydrophthalazin-1-yl)methyl)phenyl)sulfamide hydrochloride]	< 1 µM
NS(=O)(=O)Nc1ccc(Cc2n[nH]c(=O)c3ccccc23)cc1C(F)(F)F [Example 192, N-(2-(trifluorobenzylmethyl)-4-((4-oxo-3,4-dihydrophthalazin-1-yl)methyl)phenyl)sulfamide hydrochloride]	< 1 µM
COc1cc2c(Cc3cccc(Br)c3)n[nH]c(=O)c2cc1OC [Example 193]	> 10 µM
COc1cc2c(Cc3ccc(Br)cc3)n[nH]c(=O)c2cc1OC [Example 194, 4-(4-bromobenzyl)-6,7-dimethoxyphthalazin-1(2H)-one]	> 10 µM
CS(=O)(=O)NCc1ccc(-c2n[nH]c(=O)c3ccccc23)cc1 [Example 195, N-(4-(4-oxo-3,4-dihydrophthalazin-1-yl)benzyl)methanesulfonamide]	> 10 µM
O=c1[nH]nc(-c2ccc(CNS(=O)(=O)C3CC3)cc2)c2ccccc12 [Example 196, N -(4-(4-oxo-3,4-dihydrophthalazin-1-yl)benzyl)cyclopropanesulfonamide]	> 10 µM
Cc1ccc(S(=O)(=O)NCc2ccc(-c3n[nH]c(=O)c4ccccc34)cc2)cc1 [Example 197, 4-methyl-N-(4-(4-oxo-3,4-dihydrophthalazin-1-yl)benzyl)benzenesulfonamide]	> 10 µM
O=c1[nH]nc(-c2ccc(CNS(=O)(=O)c3cccs3)cc2)c2ccccc12 [Example 198, N-(4-(4-oxo-3,4-dihydrophthalazin-1-yl)benzyl)thiophene-2-sulfonamide]	> 10 µM
CNS(=O)(=O)Cc1ccc(-c2nn(C)c(=O)c3ccccc23)cc1 [Example 200, N methyl-1-(4-(3-methyl-4-oxo-3,4-dihydrophthalazin-1-yl)phenyl)methanesulfonamide]	> 10 µM
Cn1nc(-c2ccc(CS(=O)(=O)N3CCOCC3)cc2)c2ccccc2c1=O [Example 201, 2-methyl-4-(4-((morpholinosulfonyl)methyl)phenyl)phthalazin-1 (2H)-one]	> 10 µM
Cn1nc(-c2ccc(CCS(N)(=O)=O)cc2)c2ccccc2c1=O [Example 202, 2-(4-(3-methyl-4-oxo-3,4-dihydrophthalazin-1-yl)phenyl)ethane-1-sulfonamide]	1 to 10 µM
COc1cc2c(-c3ccc(CN)c(C(F)(F)F)c3)n[nH]c(=O)c2cc1OC [Example 203, 4-(4-(aminomethyl)-3-(trifluoromethyl)phenyl-6,7-dimethoxyphthalazin-1(2.8)-one hydrochloride]	> 10 µM

From patent US20230159469A1, “NOVEL PHTHALAZINE DERIVATIVE HAVING ECTONUCLOEOTIDE PYROPHOSPHATASE/PHOSPHODIESTE RASE INHIBITORY ACTIVITY, AND USE THEREOF” (TXINNO BIOSCIENCE INC., priority 2020, published 2023)
